Measurements reported in patent publication US20070254903A1, “Novel Spiroindoline or Spiroisoquinoline Compounds, Methods of Use and Compositions Thereof” (ARENA PHARMACEUTICALS, INC., priority 2003, published 2007).

How the values were obtained:
[1] = test system: isolated adult rat hearts; assay: Ischemia-Reperfusion Assay 2 (Langendorff apparatus)
Description: Male Sprague-Dawley rats (300-350 g body weight) were anesthetized with Inactin (100 mg/kg IP) 20 minutes prior to surgery. The chest wall was opened and the heart was rapidly excised and immediately placed into ice-cold Krebs-Henseleit (KH) buffer (118 mM NaCl, 4.7 mM KCl, 1.2 mM MgSO4, 1.2 mM KH2PO4, 1.5 mM CaCl2, 25 mM NaHCO3, 11 mM glucose […], and 0.005 mM EDTA) to produce cardiac arrest. The aorta was then cannulated and the heart retrogradely perfused with KH buffer maintained at 37° C. in a reservoir bubbled with 95% O2/5% CO2 (pH7.4) on the Langendorff apparatus at a constant pressure of 70 mmHg. Myocardial temperature was maintained at 37° C. by partially submerging the heart into a water-jacketed chamber filled with KH buffer. A water filled latex balloon attached to a metal cannula and inserted into the left ventricle via the mitral valve and connected to a pressure transducer (Powerlab, ADInstruments, Inc) was used for measurement of left ventricular pressure. The balloon was initially inflated to an end-diastolic pressure of 10 mmHg. After allowing 20 minutes for equilibration, rat hearts were subjected to 10 minutes of KH buffer containing drug or vehicle followed by 30 minutes of ischemia followed by 30 minutes of reperfusion. The difference between peak-systolic and end diastolic pressures, or left ventricular developed pressure (LVDP) was calculated as an index of contractile function and measured just prior to ischemia and at 10, 20 and 30 minutes of reperfusion. Percent recovery of LV function [(LVDP post reperfusion/LVDP pre-ischemia)[…]] was averaged across 5 vehicle and 4 drug treated hearts and one-way anova with Newman-Keuls Multiple Comparison Test was used to determine statistical significance.
Epicardial electrogram recordings were also taken from the isolated rat hearts used in FIGS. 3 and 4. Briefly, silver wire electrodes were placed on the right atrium and the apex of the left ventricle, allowing an epicardial electrogram to be recorded. […]

rats = assay: Measurement of blood pressure in rats (telemetry); format: in vivo, rat; settings: conscious rats, IP injection, about 120 minutes after injection; FIG. 6
Description: Cardiac parameters were measured by small transmitting devices, (Data Sciences PhysioTel Telemetry devices), implanted in rats. The implanted transmitting devices were used to measure blood pressure in freely moving conscious animals. There are no external connections or tethering devices that can inhibit animal movement and induce unnecessary stress, which can affect the outcome of a study.
This procedure was performed under modified aseptic conditions. Rats were anesthetized with Isoflurane gas that ranged in concentration from 1.5-2.0%. A cardiac telemetry device was implanted into the peritoneal cavity with a pressure sensing catheter situated no more than 2 cm inside the descending aorta. This was accomplished as follows: The rat was shaved and the incision site was prepared with an iodine solution. The rat was then placed on a heating pad to maintain a constant body temp of 38±0.5° C., and covered with a sterile drape. A 6 cm midline abdominal incision was made to provide access to the implantation area. […] The rats were monitored for 7 days to ensure proper recovery.
On the test day, injections with either vehicle or with test compound were administered via IP injection in volumes of ˜250 μl. Animals were monitored with a resolution of approximately one measurement/min for 60 minutes before injection of vehicle or compound and for about 120 minutes after injection.

[2] = test system: isolated adult rat hearts; assay: Ischemia-Reperfusion Assay 1 (Langendorff apparatus); settings: 10 μM; 30 min ischemia, 30 min reperfusion; compared to vehicle; FIG. 2
Description: Male Sprague-Dawley rats (300-350 g body weight) were anesthetized with pentobarbital sodium (50 mg/kg IP) then heparin (400 IU IP) was administered 10 minutes prior to surgery. The chest wall was opened and the heart was rapidly excised and immediately placed into ice-cold Krebs-Henseleit (KH) buffer (118 mM NaCl, 4.7 mM KCl, 1.2 mM MgSO4, 1.2 mM KH2PO4, 1.5 mM CaCl2, 25 mM NaHCO3, 11 mM glucose, 1 mM pyruvate, and 0.005 mM EDTA) to produce cardiac arrest. The aorta was then cannulated and the heart retrogradely perfused with KH buffer maintained at 37° C. in a reservoir bubbled with 95% O2/5% CO2 (pH7.4) on the Langendorff apparatus at a constant pressure of 80 mmHg. Myocardial temperature was maintained at 37° C. by partially submerging the heart into a water-jacketed chamber filled with KH buffer. A water filled latex balloon attached to a metal cannula and inserted into the left ventricle via the mitral valve and connected to a pressure transducer (Powerlab, ADInstruments, Inc) was used for measurement of left ventricular pressure. The balloon was initially inflated to an end-diastolic pressure of 10 mmHg. […] The difference between peak-systolic and end diastolic pressures, or left ventricular developed pressure (LVDP) was calculated as an index of contractile function and measured just prior to ischemia and at the end of reperfusion. […]

In the case of `C=CCN1CCC2(CC1)CN(C(=O)c1cccc(F)c1F)c1ccc(F)cc12` [Compound 75, 1′-(allyl)-1,2-dihydro-5-fluoro-1-(2,3-difluoro-benzoyl)-spiro[3H-indole-3,4′-piperidine]], the “left ventricle function after reperfusion” value ([1]; 30 μM, 30 min ischemia, 30 min reperfusion, compared to vehicle, FIG. 3) is reported as “significant increase in left ventricle function after reperfusion”, the “end diastolic pressure (EDP), ischemic contracture” value ([1]; 30 μM, compared to vehicle, FIG. 4) is reported as “significant decrease in end diastolic pressure” and the “early reperfusion arrhythmias (hearts positive)” value ([1]; epicardial electrogram, first 5 minutes of reperfusion, FIG. 5) is reported as “none of the four hearts”. The blood pressure change (rats) was “did not result in a significant change in blood pressure” and the “percent recovery of left ventricle function” value [2] was “significant increase in percent recovery of left ventricle function”.
